The values that follow come from patent US8309556B2, “Use of compounds derived from pyrimidinetrione as acetyl cholinesterase inhibitors, compositions containing said derivatives, and the uses thereof” (priority 2005, dated 2012).

Read-outs that look alike come from different tables or passages of the source.

Assay [1] concerns the target T1, G119S-mutated recombinant Culex pipiens AChE1 (Culex pipiens, UniProt Q86GC8, G247S).
T1 construct: made in house; host or cells: Drosophila S2 cells (crude lysate supernatant)
In words: biochemical. Here is the method: (§1) The inhibitory properties of the compounds of the preceding table I are tested with regard to the AChE activity by either using a normal or G119S-mutated recombinant AChE or using extracts of larvae of mosquitoes which are sensitive (carrying normal AChE) or resistant (carrying G119S-mutated AChE) to organophosphorus compounds and carbamates.
(§2) The AChE activity is measured using the method described by Bourguet et al., Pest Biochem. Physiol., 1996, 55, 122-128, and which refers to the spectroscopic method described by Ellman G. L. et al. (Biochem. Pharmacol., 1961, 7, 88-95) using acetylthiocholine as substrate.
(§3) The inhibitory properties of the compounds according to the invention with regard to the activity of a G119S-mutated or normal recombinant Culex pipiens AChE1 are tested according to protocol described by Weill et al., Nature, 2003, 423, 136-137.
(§4) Each compound according to the invention is tested at different concentrations on lysates of Drosophile S2 cells transfected with an empty expression vector or an expression vector expressing normal or mutated AChE1. After expression, the cells are centrifuged for 15 minutes at 14 000 rpm and are subsequently lysed in a 0.25 M phosphate buffer comprising 1% Triton X100.
(§5) 100 μl of supernatant originating from the centrifuging of the cell lysates at 10 000 rpm for 3 minutes are incubated for 15 minutes with 10 μl of each compound according to the invention at various concentrations.
(§6) The effectiveness of the various compounds with regard to the mutated AChE activity, relative to that of the normal AChE, is estimated by the sensitive/insensitive ratio.

Assay [2] has as its system G119S-mutated recombinant Culex pipiens AChE1. As to the kind of experiment: biochemical. As to conditions: IC50 normal AChE1 relative to mutated AChE1, recombinant. How it is done:
as §1, §2, §3, §4, §5, §6

For assay [3], the target named is T2, normal recombinant Culex pipiens AChE1 (Culex pipiens, UniProt Q86GC8).
T2 construct: made in house; host or cells: Drosophila S2 cells (crude lysate supernatant)
In words: Inhibition of normal recombinant AChE1 (lysates of transfected Drosophile S2 cells, Ellman method). The format is biochemical. How it is done: as §1, §2, §3, §4, §5, §6
On the technique in general: In Ellman's method for cholinesterases, released thiocholine reacts with DTNB.

Assay [4] deals with T3, AChE1 activity of extracts of Culex pipiens larvae resistant to propoxur (G119S-mutated AChE) (Culex pipiens, UniProt Q86GC8, G247S).
T3 construct: from tissue; host or cells: whole larvae of propoxur-resistant Culex pipiens, Triton X100 homogenate supernatant
In words: biochemical. Here is the method:
as §1, §2
(§7) Larvae of Culex pipiens mosquitoes which are sensitive or resistant to propoxur are milled in 400 μl of 0.25M phosphate buffer comprising 1% Triton X100. The homogenates are centrifuged at 10 000 rpm for 3 minutes.
(§8) The effectiveness of the various compounds with regard to the resistant larvae, relative to the sensitive larvae, is estimated by the sensitive/resistant ratio.

Assay [5] concerns AChE1 activity of extracts of Culex pipiens larvae resistant to propoxur (G119S-mutated AChE). In words: biochemical. Particulars: IC50 on larval extracts, sensitive relative to resistant. How it is done: as §1, §2, §7, §8
The target of assay [6] is T4, AChE1 activity of extracts of Culex pipiens larvae sensitive to propoxur (normal AChE) (Culex pipiens, UniProt Q86GC8).
T4 construct: from tissue; host or cells: whole larvae of propoxur-sensitive Culex pipiens, Triton X100 homogenate supernatant
In words: Inhibition of AChE1 activity in extracts of propoxur-sensitive mosquito larvae. In kind it is biochemical. How it is done:
as §1, §2, §7, §8

The test system of assay [7] is larvae of mosquitoes Culex pipiens resistant to propoxur. In words: Insecticidal activity: larval mortality, propoxur-resistant larvae. The format is in vivo. Particulars: for LC50: Culex pipiens, stage-4 larvae, mortality after 24 hours, log-Probit, read-out: LD50, Resistant larvae; for Sensitive/resistant ratio: LD50 larval mortality, sensitive relative to resistant. Here is the method:
(§9) The insecticidal activity of the compounds according to the invention denoted in table IV below is tested on larvae of mosquitoes Culex pipiens sensitive or resistant to the action of propoxur.
(§10) The larvae resistant or sensitive to propoxur are incubated in 24-well plates, at the rate of 15 stage-4 larvae per well, in 1 ml of tap water comprising different concentrations of compounds ranging from 0.31 to 50 μg/ml.
(§11) Larval mortality is measured after incubating for 24 hours. […] Cahiers ORSTOM, série Entomologie médicale et Parasitologie, 23(2), 117-121; Raymond, M., Prato, G. and Ratsira, D. (1993). PROBIT, CNRS-UMII, Licence L93019. Avenix, 34680 St. Georges d'Orques, France.), the homogeneity of the dose/response being tested. The effectiveness of the different compounds with regard to the resistant larvae, relative to the sensitive larvae, is estimated by the sensitive/resistant ratio.

For assay [8], the system named is larvae of mosquitoes Culex pipiens sensitive to propoxur. As to the kind of experiment: Insecticidal activity: larval mortality, propoxur-sensitive larvae. The format is in vivo. As to conditions: stage-4 larvae, mortality after 24 hours, log-Probit, read-out: LD50, Sensitive larvae. Here is the method: as §9, §10, §11
Where [9] appears, read: extracts of propoxur-sensitive larvae, 15 minutes incubation, read-out: IC50, Sensitive larvae.

By IC50 is commonly meant the point on the concentration scale where inhibition reaches its midpoint. Take `COc1cccc(N2C(=O)NC(=O)C(=Cc3ccc(C)o3)C2=O)c1` [(12), 1-(3-methoxyphenyl)-5-[(5-methyl-2-furyl)methylene]-2,4,6(1H,3H,5H)-pyrimidinetrione]: the IC50 stood at 3.5 µM in assay [1], 3.4 µM in assay [3], 6 µM in assay [4] and 54 µM in assay [6] (setting [9]). In assay [2], the Sensitive/insensitive ratio was determined as 0.96. Further, the Sensitive/resistant ratio in assay [5] came to 8.5.

For the molecule `CN1C(=O)C(=Cc2ccco2)C(=O)N(C)C1=O` [(10), 5-(2-furylmethylene)-1,3-dimethyl-2,4,6(1H,3H,5H)-pyrimidinetrione], the IC50 in assay [1] amounted to 357 µM; in assay [3] it was 1190 µM. Moreover, the Sensitive/insensitive ratio in assay [2] is listed as 3.34.

On to `Cc1ccc(C=C2C(=O)NC(=O)N(c3ccc(F)cc3)C2=O)s1` [(16), 1-(4-fluorophenyl)-5-[(5-methyl-2-thienyl)methylene]-2,4,6(1H,3H,5H)-pyrimidinetrione], for which the 50% inhibitory concentration (IC50) is 8.6 µM in assay [1], 17.1 µM in assay [3], 22 µM in assay [4] and 490 µM in assay [6] (setting [9]). Besides, the Sensitive/insensitive ratio in assay [2] stood at 1.99. Further, the Sensitive/resistant ratio in assay [5] came out at 22.5.

On to `COc1ccc(N2C(=O)NC(=O)C(=Cc3ccc(C)o3)C2=O)cc1` [(5), 1-(4-methoxyphenyl)-5-[(5-methyl-2-furyl)methylene]-2,4,6(1H,3H,5H)-pyrimidinetrione], for which the IC50 in assay [1] is 22 µM; in assay [3], 30 µM; in assay [4] it was 81 µM; in assay [6] (setting [9]), 592 µM. For the same molecule, the Sensitive/insensitive ratio in assay [2] is listed as 1.36. The results for the Sensitive/resistant ratio in assay [5] and in assay [7] were 7.3 and 1.5, respectively. In addition, the figures for the LC50 in assay [7] and in assay [8] were 206 µM and 300 µM, respectively.

On to `CCOc1ccc(N2C(=O)NC(=O)C(=Cc3ccc(C)o3)C2=O)cc1` [(13), 1-(4-ethoxyphenyl)-5-[(5-methyl-2-furyl)methylene]-2,4,6(1H,3H,5H)-pyrimidinetrione], for which the concentration for half-maximal inhibition (IC50) was 2.9 µM in assay [1], 7.1 µM in assay [3], 89 µM in assay [4] and 236 µM in assay [6] (setting [9]). Moreover, the Sensitive/insensitive ratio in assay [2] is on record as 2.40. For the same molecule, the Sensitive/resistant ratio in assay [5] worked out at 2.7.

Take `Cc1ccc(N2C(=O)NC(=O)C(=Cc3ccc(C)o3)C2=O)cc1` [(11), 5-[(5-methyl-2-furyl)methylene]-1-(4-methylphenyl)-2,4,6(1H,3H,5H)-pyrimidinetrione]: the 50% inhibitory concentration (IC50) turned out to be 3.5 µM in assay [1], 4.5 µM in assay [3], 14 µM in assay [4] and 111 µM in assay [6] (setting [9]). In assay [2], the Sensitive/insensitive ratio turned out to be 1.27. Moreover, the Sensitive/resistant ratio in assay [5] is 7.7.

With `CCc1ccc(N2C(=O)NC(=O)C(=Cc3ccc(C)o3)C2=O)cc1` [(19), 1-(4-ethylphenyl)-5-[(5-methyl-2-furyl)methylene]-2,4,6(1H,3H,5H)-pyrimidinetrione], the concentration for half-maximal inhibition (IC50) in assay [1] came to 3.4 µM; in assay [3] it was 1.9 µM; in assay [4], 19 µM; in assay [6] (setting [9]), 312 µM. Also, in assay [2], the Sensitive/insensitive ratio stood at 0.58. In assay [5], the Sensitive/resistant ratio amounted to 16.7.

As for `Cc1ccc(C=C2C(=O)NC(=O)N(c3ccc(Cl)cc3)C2=O)s1` [(15), 1-(4-chlorophenyl)-5-[(5-methyl-2-thienyl)methylene]-2,4,6(1H,3H,5H)-pyrimidinetrione], the half-maximal inhibitory concentration (IC50) in assay [1] is 8.7 µM; in assay [3] it was 8.7 µM; in assay [4], 177 µM; in assay [6] (setting [9]), 1220 µM. The Sensitive/insensitive ratio in assay [2] was determined as 1.00. Moreover, the Sensitive/resistant ratio in assay [5] is given as 6.9.

`CNC(=O)Oc1ccccc1OC(C)C` [Propoxur, propoxur, reference compound]: the 50% inhibitory concentration (IC50) is 6350 µM in assay [1], 9 µM in assay [3], 31800 µM in assay [4] and 4.9 µM in assay [6]. The Sensitive/insensitive ratio in assay [2] amounted to 0.0014. In addition, the figures for the Sensitive/resistant ratio in assay [5] and in assay [7] were 0.00015 and 0.00063, respectively. Also, the LC50 in assay [7] came to 2700 µM; in assay [8] it was 1.7 µM.

On to `Cc1ccc(C=C2C(=O)NC(=O)N(c3ccc(C)c(C)c3)C2=O)o1` [(17), 1-(3,4-dimethylphenyl)-5-[(5-methyl-2-furyl)methylene]-2,4,6(1H,3H,5H)-pyrimidinetrione], for which the 50% inhibitory concentration (IC50) was 8.5 µM in assay [1], 15.7 µM in assay [3], 35 µM in assay [4] and 424 µM in assay [6] (setting [9]). In addition, the Sensitive/insensitive ratio in assay [2] is 1.85. Moreover, in assay [5], the Sensitive/resistant ratio worked out at 12.2.

In the case of `Cc1ccc(C=C2C(=O)NC(=O)N(c3ccc(Br)cc3)C2=O)s1` [(14), 1-(4-bromophenyl)-5-[(5-methyl-2-thienyl)methylene]-2,4,6(1H,3H,5H)-pyrimidinetrione], the IC50 in assay [1] was 11.1 µM; in assay [3] it was 9.6 µM; in assay [4], 142 µM; in assay [6] (setting [9]) it was 2120 µM. Besides, in assay [2], the Sensitive/insensitive ratio was determined as 0.87. For the same molecule, the Sensitive/resistant ratio in assay [5] was 15.0.

As to `Cc1ccc(C=C2C(=O)NC(=O)N(c3ccc(C(C)C)cc3)C2=O)o1` [(7), 1-(4-isopropylphenyl)-5-[(5-methyl-2-furyl)methylene]-2,4,6(1H,3H,5H)-pyrimidinetrione], the 50% inhibitory concentration (IC50) in assay [1] came to 72 µM; in assay [3], 128 µM; in assay [4] it was 21 µM; in assay [6] (setting [9]), 132 µM. In assay [2], the Sensitive/insensitive ratio worked out at 1.78. In addition, in assay [5], the Sensitive/resistant ratio turned out to be 6.1.

For `O=C1NC(=O)N(c2ccccc2)C(=O)C1=Cc1ccco1` [(9), 5-(2-furylmethylene)-1-phenyl-2,4,6(1H,3H,5H)-pyrimidinetrione], the half-maximal inhibitory concentration (IC50) was found to be 737 µM in assay [1] and 1390 µM in assay [3]. In addition, the Sensitive/insensitive ratio in assay [2] was determined as 1.89.

On to `Cc1ccc(C=C2C(=O)NC(=O)N(Cc3ccco3)C2=O)o1` [(18), 1-(2-furylmethyl)-5-[(5-methyl-2-furyl)methylene]-2,4,6(1H,3H,5H)-pyrimidinetrione], for which the IC50 in assay [1] is 4.8 µM; in assay [3] it was 10.1 µM; in assay [4] it was 37 µM; in assay [6] (setting [9]), 260 µM. Besides, the Sensitive/insensitive ratio in assay [2] came to 2.10. The Sensitive/resistant ratio in assay [5] was 7.1.

`CCCCN1C(=O)NC(=O)C(=Cc2ccc(C)s2)C1=O` [(20), 1-butyl-5-[(5-methyl-2-thienyl)methylene]-2,4,6(1H,3H,5H)-pyrimidinetrione]: the IC50 in assay [1] came to 15.5 µM; in assay [3] it was 12.1 µM; in assay [4] it was 152 µM; in assay [6] (setting [9]) it was 153 µM. In addition, the Sensitive/insensitive ratio in assay [2] was determined as 0.78. The Sensitive/resistant ratio in assay [5] turned out to be 1.0.
